Measurements published in ChEMBL document CHEMBL5360519, “Chemical similarities and differences among inhibitors of nitric oxide synthase, arginase and dimethylarginine dimethylaminohydrolase-1: Implications for the design of novel enzyme inhibitors modulating the nitric oxide pathway” (Bioorg Med Chem, 2022).
Each block holds one compound with its values, some of them ahead of it.

How the values were obtained:
[1] = biological target: T1, N(G),N(G)-dimethylarginine dimethylaminohydrolase 1 (Homo sapiens, UniProt O94760); test: Inhibition of human DDAH1 assessed as inhibition constant by microplate reader assay
T1 sequence (O94760 whole entry): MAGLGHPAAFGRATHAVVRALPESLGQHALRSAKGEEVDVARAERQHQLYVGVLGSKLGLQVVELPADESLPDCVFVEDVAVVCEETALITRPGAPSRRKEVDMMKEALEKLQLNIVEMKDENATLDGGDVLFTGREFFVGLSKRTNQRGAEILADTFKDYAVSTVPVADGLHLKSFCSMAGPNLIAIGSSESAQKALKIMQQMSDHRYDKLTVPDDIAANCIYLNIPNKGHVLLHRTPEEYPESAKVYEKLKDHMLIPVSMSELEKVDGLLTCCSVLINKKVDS

[2] = biological target: T1, N(G),N(G)-dimethylarginine dimethylaminohydrolase 1; test: Inhibition of human DDAH1 expressed using SMTC as substrate measured after 5 mins
Arginase-1 [3] = biological target: T2, Arginase-1 (Mus musculus, UniProt Q61176); test: Inhibition of mouse arginase 1
T2 sequence (Q61176 whole entry): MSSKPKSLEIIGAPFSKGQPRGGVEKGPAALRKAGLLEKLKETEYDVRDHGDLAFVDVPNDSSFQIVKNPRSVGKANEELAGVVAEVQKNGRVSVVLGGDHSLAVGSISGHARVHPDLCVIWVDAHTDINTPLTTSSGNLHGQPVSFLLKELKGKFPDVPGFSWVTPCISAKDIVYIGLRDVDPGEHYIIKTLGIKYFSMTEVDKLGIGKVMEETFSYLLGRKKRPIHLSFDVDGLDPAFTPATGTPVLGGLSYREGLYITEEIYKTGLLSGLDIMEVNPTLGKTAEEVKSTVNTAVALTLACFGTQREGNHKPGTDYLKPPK

Arginase-1 [4] = biological target: T3, Arginase-1 (Rattus norvegicus, UniProt P07824); test: Inhibition of Sprague-Dawley rat liver arginase 1; type: tissue-based
T3 sequence (P07824 whole entry): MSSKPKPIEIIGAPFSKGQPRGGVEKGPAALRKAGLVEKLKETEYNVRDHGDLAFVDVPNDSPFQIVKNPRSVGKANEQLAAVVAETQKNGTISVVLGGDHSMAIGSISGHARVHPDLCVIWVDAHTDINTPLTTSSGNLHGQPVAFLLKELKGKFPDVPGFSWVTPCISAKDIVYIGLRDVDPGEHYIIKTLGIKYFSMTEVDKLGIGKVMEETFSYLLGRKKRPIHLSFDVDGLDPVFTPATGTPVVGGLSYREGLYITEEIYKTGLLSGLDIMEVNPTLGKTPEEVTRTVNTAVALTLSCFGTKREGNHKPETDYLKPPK

Arginase-1 [5] = biological target: T3, Arginase-1; test: Inhibition of Sprague-Dawley rat liver arginase 1 assessed as inhibition constant; type: tissue-based
[6] = Inhibition of bovine arginase; design: species or system Bos taurus
Nitric oxide synthase 1 [7] = biological target: T4, Nitric oxide synthase 1 (Homo sapiens, UniProt P29475); test: Inhibition of human nNOS assessed as inhibition constant measured after 5 mins
T4 sequence (P29475 whole entry): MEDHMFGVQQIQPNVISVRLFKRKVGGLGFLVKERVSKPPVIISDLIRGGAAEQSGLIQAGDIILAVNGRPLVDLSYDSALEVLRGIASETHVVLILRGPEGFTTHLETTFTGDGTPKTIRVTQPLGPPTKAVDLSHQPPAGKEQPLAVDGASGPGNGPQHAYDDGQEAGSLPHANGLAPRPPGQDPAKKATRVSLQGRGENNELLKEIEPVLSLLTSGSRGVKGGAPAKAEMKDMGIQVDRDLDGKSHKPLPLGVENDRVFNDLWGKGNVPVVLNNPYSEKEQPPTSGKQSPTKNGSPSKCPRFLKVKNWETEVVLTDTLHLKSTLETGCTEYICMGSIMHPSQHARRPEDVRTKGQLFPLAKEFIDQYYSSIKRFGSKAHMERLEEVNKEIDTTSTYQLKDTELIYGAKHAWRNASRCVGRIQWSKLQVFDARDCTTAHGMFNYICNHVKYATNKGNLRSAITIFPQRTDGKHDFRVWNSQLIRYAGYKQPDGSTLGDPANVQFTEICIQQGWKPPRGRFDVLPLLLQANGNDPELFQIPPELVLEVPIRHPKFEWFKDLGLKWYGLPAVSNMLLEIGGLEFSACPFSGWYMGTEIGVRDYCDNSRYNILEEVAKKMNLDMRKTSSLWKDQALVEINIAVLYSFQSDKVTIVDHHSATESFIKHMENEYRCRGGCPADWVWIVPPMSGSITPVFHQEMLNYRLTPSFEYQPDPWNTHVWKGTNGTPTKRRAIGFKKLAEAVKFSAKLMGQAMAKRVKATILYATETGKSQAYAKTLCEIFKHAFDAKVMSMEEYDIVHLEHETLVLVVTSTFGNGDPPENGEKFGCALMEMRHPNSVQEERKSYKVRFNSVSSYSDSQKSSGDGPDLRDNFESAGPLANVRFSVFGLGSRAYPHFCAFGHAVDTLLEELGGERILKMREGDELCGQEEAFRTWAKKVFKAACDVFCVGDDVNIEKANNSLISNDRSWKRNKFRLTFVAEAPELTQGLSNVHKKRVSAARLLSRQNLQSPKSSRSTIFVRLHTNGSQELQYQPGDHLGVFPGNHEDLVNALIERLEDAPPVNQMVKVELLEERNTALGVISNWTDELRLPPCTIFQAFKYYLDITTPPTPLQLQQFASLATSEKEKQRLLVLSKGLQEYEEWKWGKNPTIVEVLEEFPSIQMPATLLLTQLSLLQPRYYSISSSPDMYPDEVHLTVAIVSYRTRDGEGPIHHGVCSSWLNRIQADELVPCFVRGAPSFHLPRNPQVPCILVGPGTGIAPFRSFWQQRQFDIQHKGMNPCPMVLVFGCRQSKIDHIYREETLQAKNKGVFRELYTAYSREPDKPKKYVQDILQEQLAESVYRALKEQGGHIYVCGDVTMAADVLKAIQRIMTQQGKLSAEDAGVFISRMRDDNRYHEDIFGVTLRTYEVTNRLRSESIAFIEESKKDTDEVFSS

[8] = biological target: T1, N(G),N(G)-dimethylarginine dimethylaminohydrolase 1; test: Inhibition of human DDAH1 expressed in Escherichia coli BL21 cells measured after 30 mins by […] assay
[9] = Inhibition of bovine nNOS expressed in Escherichia coli assessed as reduction of L-[14C]arginine to L-[14C]citrulline conversion by liquid scintillation counting analysis; design: species or system Bos taurus
[10] = biological target: T1, N(G),N(G)-dimethylarginine dimethylaminohydrolase 1; test: Inhibition of human DDAH1 using [14C]-L-NMMA as substrate assessed as reduction in [14C]-citrulline conversion measured after 1 hrs by scintillation counting analysis
[11] = Inhibition of recombinant rat liver arginase expressed in Escherichia coli assessed as inhibition constant
Nitric oxide synthase 1 [12] = biological target: T4, Nitric oxide synthase 1; test: Inhibition of human nNOS transfected in baculovirus infected Sf9 cells assessed as reduction of [3H]L-arginine conversion to [3H]L-citrulline by scintillation counter analysis
Nitric oxide synthase 3 = biological target: T5, Nitric oxide synthase 3 (Homo sapiens, UniProt P29474); test: Inhibition of human eNOS transfected in baculovirus infected Sf9 cells assessed as reduction of [3H]L-arginine conversion to [3H]L-citrulline by scintillation counter analysis
T5 sequence (P29474 whole entry): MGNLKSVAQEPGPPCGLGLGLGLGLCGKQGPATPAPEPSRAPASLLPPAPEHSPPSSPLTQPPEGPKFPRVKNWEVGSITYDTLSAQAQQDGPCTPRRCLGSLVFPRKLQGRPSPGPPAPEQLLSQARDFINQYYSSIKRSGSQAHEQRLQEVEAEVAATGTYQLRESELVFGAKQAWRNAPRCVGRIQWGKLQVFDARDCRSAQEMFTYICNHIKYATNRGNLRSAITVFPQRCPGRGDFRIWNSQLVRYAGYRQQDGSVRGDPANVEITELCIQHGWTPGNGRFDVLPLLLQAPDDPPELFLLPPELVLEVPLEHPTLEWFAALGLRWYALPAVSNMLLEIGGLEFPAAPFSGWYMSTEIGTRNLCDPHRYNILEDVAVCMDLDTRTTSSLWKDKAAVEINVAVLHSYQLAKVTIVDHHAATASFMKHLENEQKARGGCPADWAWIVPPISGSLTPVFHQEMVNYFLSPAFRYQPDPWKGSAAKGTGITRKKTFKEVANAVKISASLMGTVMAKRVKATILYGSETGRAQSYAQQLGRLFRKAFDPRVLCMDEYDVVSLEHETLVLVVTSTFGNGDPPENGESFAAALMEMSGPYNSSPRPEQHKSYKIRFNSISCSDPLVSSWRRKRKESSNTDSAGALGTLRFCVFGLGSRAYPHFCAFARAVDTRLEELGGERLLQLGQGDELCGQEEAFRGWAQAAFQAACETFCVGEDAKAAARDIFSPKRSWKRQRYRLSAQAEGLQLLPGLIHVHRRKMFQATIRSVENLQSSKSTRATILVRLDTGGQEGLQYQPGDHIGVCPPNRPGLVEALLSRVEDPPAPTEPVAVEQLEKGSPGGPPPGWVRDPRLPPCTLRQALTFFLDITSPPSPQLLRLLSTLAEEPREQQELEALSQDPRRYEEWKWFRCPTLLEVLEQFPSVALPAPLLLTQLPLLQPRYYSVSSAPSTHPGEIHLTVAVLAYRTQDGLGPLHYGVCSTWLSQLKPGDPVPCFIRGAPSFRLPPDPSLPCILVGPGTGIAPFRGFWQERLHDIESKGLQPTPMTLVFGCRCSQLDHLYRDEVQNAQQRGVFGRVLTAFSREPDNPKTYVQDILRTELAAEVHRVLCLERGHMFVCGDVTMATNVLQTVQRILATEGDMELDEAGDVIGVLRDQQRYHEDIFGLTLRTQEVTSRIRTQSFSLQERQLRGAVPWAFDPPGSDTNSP

- Ki [1]: 690 µM
SMILES: N[C@@H](CCSN=O)C(=O)O

- IC50 [2]: > 1900 µM
SMILES: CCCCCC(=N)NCCC[C@H](N)C(=O)O

- IC50 (Arginase-1 [3]): 450 µM
- IC50 (Arginase-1 [4]): 150 µM
- Ki (Arginase-1 [5]): 10 µM
- Ki [6]: 30 µM
SMILES: N=C(NO)NCCC[C@H](N)C(=O)O

- Ki (Nitric oxide synthase 1 [7]): 0.09 µM
- IC50 [8]: 12 µM
SMILES: C=CCC(=N)NCCC[C@H](N)C(=O)O
- Ki [9]: 0.024 µM

- IC50 [10]: 250 µM
SMILES: C/N=C(\N)NCC[C@H](N)C(=O)O

SMILES: N[C@@H](CSCCB(O)O)C(=O)O
- Ki [11]: 0.4 µM

- IC50 (Nitric oxide synthase 1 [12]): 17 µM
- IC50 (Nitric oxide synthase 3): 162 µM
SMILES: COc1ccnc(CCc2nc3ncccc3[nH]2)c1
